# Test system: panel of nearly 500 cancer cell lines
# Assay: Cancer Cell Line Encyclopedia profiling, 3-day CellTiter-Glo
# Assay type: cell-based
# Parameters: Amax: unit not given here
smiles,measurement,setting,value
"CC(=O)c1c(C)c2cnc(Nc3ccc(N4CCNCC4)cn3)nc2n(C2CCCC2)c1=O [Palbociclib, reference compound]",Amax,769p (kidney),-52.63
same,Amax,8305c (thyroid),-51.0145
same,Amax,8505c (thyroid),-0.08134
same,EC50,COV318,> 8 µM
same,EC50,COV504,> 8 µM
same,EC50,GLC82,0.00254 µM
same,EC50,HCC15,> 8 µM
same,EC50,HEC-251,> 8 µM
same,EC50,HEY A8,0.947 µM
same,EC50,"Homo sapiens, 22Rv1",1.22 µM
same,EC50,"Homo sapiens, 639-V",> 8 µM
same,EC50,"Homo sapiens, 769-P",> 8 µM
same,EC50,"Homo sapiens, 8305C",0.576 µM
same,EC50,"Homo sapiens, 8505C",> 8 µM
same,EC50,"Homo sapiens, A 172",> 8 µM
same,EC50,"Homo sapiens, A204",0.407 µM
same,EC50,"Homo sapiens, A253",> 8 µM
same,EC50,"Homo sapiens, A549",1.14 µM
same,EC50,"Homo sapiens, A673",> 8 µM
same,EC50,"Homo sapiens, A2058",> 8 µM
same,EC50,"Homo sapiens, A2780",1.9 µM
same,EC50,"Homo sapiens, A-375",2.72 µM
same,EC50,"Homo sapiens, AMO1",> 8 µM
same,EC50,"Homo sapiens, AN3-CA",5.91 µM
same,EC50,"Homo sapiens, ASPC1",> 8 µM
same,EC50,"Homo sapiens, AU565",0.993 µM
same,EC50,"Homo sapiens, AZ-521",> 8 µM
same,EC50,"Homo sapiens, BFTC-909",> 8 µM
same,EC50,"Homo sapiens, BGC-823",> 8 µM
same,EC50,"Homo sapiens, BL-41",> 8 µM
same,EC50,"Homo sapiens, BT-20",> 8 µM
same,EC50,"Homo sapiens, BT-474",2.09 µM
same,EC50,"Homo sapiens, BT-549",> 8 µM
same,EC50,"Homo sapiens, C2BBe1",1.73 µM
same,EC50,"Homo sapiens, CAKI-2",> 8 µM
same,EC50,"Homo sapiens, CAL-27",> 8 µM
same,EC50,"Homo sapiens, CAL-85-1",> 8 µM
same,EC50,"Homo sapiens, CAMA-1",> 8 µM
same,EC50,"Homo sapiens, CHL-1",> 8 µM
same,EC50,"Homo sapiens, COLO 201",0.989 µM
same,EC50,"Homo sapiens, COLO 205",1.71 µM
same,EC50,"Homo sapiens, COLO 320",> 8 µM
same,EC50,"Homo sapiens, COLO-679",> 8 µM
same,EC50,"Homo sapiens, COR-L23",> 8 µM
same,EC50,"Homo sapiens, Calu-1",> 8 µM
same,EC50,"Homo sapiens, Calu-3",> 8 µM
same,EC50,"Homo sapiens, Capan-2",> 8 µM
same,EC50,"Homo sapiens, DBTRG-05MG",> 8 µM
same,EC50,"Homo sapiens, DMS-114",0.957 µM
same,EC50,"Homo sapiens, DOV13",> 8 µM
same,EC50,"Homo sapiens, DU-145",> 8 µM
same,EC50,"Homo sapiens, Daoy",> 8 µM
same,EC50,"Homo sapiens, Detroit 562",1.94 µM
same,EC50,"Homo sapiens, EBC-1",0.242 µM
same,EC50,"Homo sapiens, EFE-184",> 8 µM
same,EC50,"Homo sapiens, EFM-19",0.565 µM
same,EC50,"Homo sapiens, EFO-21",> 8 µM
same,EC50,"Homo sapiens, EFO-27",> 8 µM
same,EC50,"Homo sapiens, FaDu",2.3 µM
same,EC50,"Homo sapiens, G-361",> 8 µM
same,EC50,"Homo sapiens, G-401",0.644 µM
same,EC50,"Homo sapiens, GCIY",> 8 µM
same,EC50,"Homo sapiens, GMS-10",2.8 µM
same,EC50,"Homo sapiens, HCC70",> 8 µM
same,EC50,"Homo sapiens, HCC78",> 8 µM
same,EC50,"Homo sapiens, HCC1187",> 8 µM
same,EC50,"Homo sapiens, HCC1569",> 8 µM
same,EC50,"Homo sapiens, HCC1806",> 8 µM
same,EC50,"Homo sapiens, HCC1954",0.597 µM
same,EC50,"Homo sapiens, HCC2935",> 8 µM
same,EC50,"Homo sapiens, HCC4006",0.73 µM
same,EC50,"Homo sapiens, HCT-15",> 8 µM
same,EC50,"Homo sapiens, HCT-116",> 8 µM
same,EC50,"Homo sapiens, HEC-1-A",0.764 µM
same,EC50,"Homo sapiens, HEC-1B",2.77 µM
same,EC50,"Homo sapiens, HEL 92.1.7",> 8 µM
same,EC50,"Homo sapiens, HGC-27",0.539 µM
same,EC50,"Homo sapiens, HMCB",> 8 µM
same,EC50,"Homo sapiens, HPAC",0.69 µM
same,EC50,"Homo sapiens, HSC-2",> 8 µM
same,EC50,"Homo sapiens, HT1197",> 8 µM
same,EC50,"Homo sapiens, HT-29",0.557 µM
same,EC50,"Homo sapiens, HT-144",> 8 µM
same,EC50,"Homo sapiens, HT-1080",> 8 µM
same,EC50,"Homo sapiens, HT-1376",> 8 µM
same,EC50,"Homo sapiens, HepG2",0.819 µM
same,EC50,"Homo sapiens, Hs 294T",> 8 µM
same,EC50,"Homo sapiens, Hs 683",3.62 µM
same,EC50,"Homo sapiens, Hs 695T",> 8 µM
same,EC50,"Homo sapiens, Hs746T",0.231 µM
same,EC50,"Homo sapiens, Hs-578T",> 8 µM
same,EC50,"Homo sapiens, HuCCT-1",> 8 µM
same,EC50,"Homo sapiens, HuH-1",1.38 µM
same,EC50,"Homo sapiens, HuP-T3",1.91 µM
same,EC50,"Homo sapiens, HuP-T4",> 8 µM
same,EC50,"Homo sapiens, HuT78",> 8 µM
same,EC50,"Homo sapiens, IGR-37",> 8 µM
same,EC50,"Homo sapiens, IGROV-1",> 8 µM
same,EC50,"Homo sapiens, IMR-32",0.69 µM
same,EC50,"Homo sapiens, IPC-298",> 8 µM
same,EC50,"Homo sapiens, KALS-1",> 8 µM
same,EC50,"Homo sapiens, KARPAS-299",> 8 µM
same,EC50,"Homo sapiens, KARPAS-422",> 8 µM
same,EC50,"Homo sapiens, KMS-12-BM",> 8 µM
same,EC50,"Homo sapiens, KNS-42",> 8 µM
same,EC50,"Homo sapiens, KU812",> 8 µM
same,EC50,"Homo sapiens, KYSE-30",> 8 µM
same,EC50,"Homo sapiens, KYSE-410",> 8 µM
same,EC50,"Homo sapiens, KYSE-520",> 8 µM
same,EC50,"Homo sapiens, L-363",0.804 µM
same,EC50,"Homo sapiens, LCLC-103H",> 8 µM
same,EC50,"Homo sapiens, LN-18",> 8 µM
same,EC50,"Homo sapiens, LN-229",1.48 µM
same,EC50,"Homo sapiens, LOX IMVI",> 8 µM
same,EC50,"Homo sapiens, LS-123",> 8 µM
same,EC50,"Homo sapiens, LS-513",> 8 µM
same,EC50,"Homo sapiens, Lu-99",1 µM
same,EC50,"Homo sapiens, M059J",> 8 µM
same,EC50,"Homo sapiens, MC116",> 8 µM
same,EC50,"Homo sapiens, MCF7",> 8 µM
same,EC50,"Homo sapiens, MDA-MB-157",> 8 µM
same,EC50,"Homo sapiens, MDA-MB-175-VII",> 8 µM
same,EC50,"Homo sapiens, MDA-MB-415",6.74 µM
same,EC50,"Homo sapiens, MDA-MB-436",> 8 µM
same,EC50,"Homo sapiens, MDA-MB-453",3.41 µM
same,EC50,"Homo sapiens, MDA-MB-468",> 8 µM
same,EC50,"Homo sapiens, MEG-01",> 8 µM
same,EC50,"Homo sapiens, MES-SA",0.795 µM
same,EC50,"Homo sapiens, MFE-280",> 8 µM
same,EC50,"Homo sapiens, MG-63",0.532 µM
same,EC50,"Homo sapiens, MIA PaCa-2",> 8 µM
same,EC50,"Homo sapiens, MINO",0.489 µM
same,EC50,"Homo sapiens, MKN-7",> 8 µM
same,EC50,"Homo sapiens, MKN-45",> 8 µM
same,EC50,"Homo sapiens, MKN-74",> 8 µM
same,EC50,"Homo sapiens, MSTO-211H",> 8 µM
same,EC50,"Homo sapiens, Malme-3M",0.714 µM
same,EC50,"Homo sapiens, NCI-H23",> 8 µM
same,EC50,"Homo sapiens, NCI-H28",1.98 µM
same,EC50,"Homo sapiens, NCI-H211",0.877 µM
same,EC50,"Homo sapiens, NCI-H226",> 8 µM
same,EC50,"Homo sapiens, NCI-H358",1.49 µM
same,EC50,"Homo sapiens, NCI-H441",1.35 µM
same,EC50,"Homo sapiens, NCI-H520",0.706 µM
same,EC50,"Homo sapiens, NCI-H522",> 8 µM
same,EC50,"Homo sapiens, NCI-H647",> 8 µM
same,EC50,"Homo sapiens, NCI-H650",> 8 µM
same,EC50,"Homo sapiens, NCI-H661",> 8 µM
same,EC50,"Homo sapiens, NCI-H727",> 8 µM
same,EC50,"Homo sapiens, NCI-H747",3.94 µM
same,EC50,"Homo sapiens, NCI-H810",> 8 µM
same,EC50,"Homo sapiens, NCI-H1048",> 8 µM
same,EC50,"Homo sapiens, NCI-H1092",> 8 µM
same,EC50,"Homo sapiens, NCI-H1355",1.06 µM
same,EC50,"Homo sapiens, NCI-H1373",> 8 µM
same,EC50,"Homo sapiens, NCI-H1563",> 8 µM
same,EC50,"Homo sapiens, NCI-H1573",1.03 µM
same,EC50,"Homo sapiens, NCI-H1581",> 8 µM
same,EC50,"Homo sapiens, NCI-H1648",> 8 µM
same,EC50,"Homo sapiens, NCI-H1650",2.37 µM
same,EC50,"Homo sapiens, NCI-H1651",2.52 µM
same,EC50,"Homo sapiens, NCI-H1666",> 8 µM
same,EC50,"Homo sapiens, NCI-H1693",> 8 µM
same,EC50,"Homo sapiens, NCI-H1694",> 8 µM
same,EC50,"Homo sapiens, NCI-H1792",1.5 µM
same,EC50,"Homo sapiens, NCI-H1793",0.881 µM
same,EC50,"Homo sapiens, NCI-H1944",2.85 µM
same,EC50,"Homo sapiens, NCI-H1975",> 8 µM
same,EC50,"Homo sapiens, NCI-H2009",> 8 µM
same,EC50,"Homo sapiens, NCI-H2030",> 8 µM
same,EC50,"Homo sapiens, NCI-H2052",0.528 µM
same,EC50,"Homo sapiens, NCI-H2087",0.238 µM
same,EC50,"Homo sapiens, NCI-H2122",0.167 µM
same,EC50,"Homo sapiens, NCI-H2170",1.54 µM
same,EC50,"Homo sapiens, NCI-H2228",> 8 µM
same,EC50,"Homo sapiens, NCI-H2444",> 8 µM
same,EC50,"Homo sapiens, NCI-H2452",> 8 µM
same,EC50,"Homo sapiens, NCI-H3255",> 8 µM
same,EC50,"Homo sapiens, NCI-N87",> 8 µM
same,EC50,"Homo sapiens, NUGC-3",0.178 µM
same,EC50,"Homo sapiens, NUGC-4",0.715 µM
same,EC50,"Homo sapiens, OC-314",> 8 µM
same,EC50,"Homo sapiens, OCI-AML2",1.18 µM
same,EC50,"Homo sapiens, OE33",2.02 µM
same,EC50,"Homo sapiens, ONS-76",1.36 µM
same,EC50,"Homo sapiens, OV-90",> 8 µM
same,EC50,"Homo sapiens, OVCAR-3",> 8 µM
same,EC50,"Homo sapiens, OVCAR-4",> 8 µM
same,EC50,"Homo sapiens, OVCAR-8",> 8 µM
same,EC50,"Homo sapiens, OVSAHO",0.613 µM

# Source: publication PMC6219668 (Oncotarget, 2018)
